From ChEMBL document CHEMBL5604065, “ASAP - DENV-3 NS2B-NS3 protease fluorescence dose response” (2024)
Several values for one entry are separate records, joined by “and”; a condition that tells them apart may be missing. Equal values may be shown once.

Target: T1, NS3 protease (dengue virus type 3, UniProt A0A0B5JFF1)
T1 sequence (A0A0B5JFF1 whole entry): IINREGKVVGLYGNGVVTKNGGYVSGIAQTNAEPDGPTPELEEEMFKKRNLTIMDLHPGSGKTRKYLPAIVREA
Test: Functional biochemical assay to identify treatments for viral infectious disease that targets Dengue virus type 3 NS2B-NS3 protease. Utilizing a direct enzyme activity measurement method, reading the fluorescence intensity is used to characterize the relative potency of inhibitors as IC50.
Parameters: species or system Philippines/H87/1956

## O=C(NCC(F)F)[C@H](Nc1ccc2c(c1)CNC2)c1cc(F)cc2[nH]ccc12
  IC50: > 99.5 µM

## O=C(Nc1cc(Cl)cc([C@H](C#CCO)Nc2cccc(-c3nn[nH]n3)c2)c1)OCc1ccccc1
  IC50: 11.9 µM

## Cn1cc(CCc2nc3c(C(=O)Nc4ccc5c(c4)CNC5)cc(Cl)cc3[nH]2)cn1
  IC50: 23.7 µM

## N#C[C@H](Nc1cccc(-c2nn[nH]n2)c1)c1cc(Cl)cc(NC(=O)OCc2ccccc2)c1
  IC50: 9.59 µM

## N#C[C@H](Nc1ccc2c(c1)CNC2)c1cc(Cl)cc(C2CC2)c1
  IC50: > 99.5 µM

## O=C(Nc1cc2c(c(C3=CCOCC3)c1)CNC2)c1cc(F)cc2[nH]ncc12
  IC50: 8.47 µM

## O=C(Nc1cc(Cl)cc([C@H]2C[C@@H]2c2cccc(C3CCNCC3)c2)c1)OCc1ccccc1
  IC50: 4.79 µM

## COc1cc(-c2cc(NC(=O)c3cc(F)cc4[nH]ncc34)cc3c2CNC3)ccn1
  IC50: 12.9 µM

## C=CC[C@H](Nc1cc(Cl)cc(NC(=O)OCc2ccccc2)c1)c1cccc(-c2nn[nH]n2)c1
  IC50: 6.43 µM

## COCCNC(=O)[C@H](Nc1ccc2c(c1)CNC2)c1cc(Cl)cc(C2CC2)c1
  IC50: 63.4 µM

## CNC(=O)[C@H](Nc1cc(Cl)cc(NC(=O)OCc2ccccc2)c1)c1cccc(-c2nn[nH]n2)c1
  IC50: 40.4 µM

## O=C(Nc1ccc2c(c1)CNC2)c1cccc(-c2cnco2)c1
  IC50: 21.2 µM

## Cn1cc2cc(Cl)cc(C(=O)Nc3ccc4c(c3)CNC4)c2n1
  IC50: > 99.5 µM

## N#Cc1ccc(-c2nc3c(C(=O)Nc4ccc5c(c4)CNC5)cc(F)cc3[nH]2)cc1
  IC50: 1.7 µM

## CCc1cc(C(=O)Nc2cccc(-n3nn[nH]c3=O)c2)sc1-c1ccc(Cl)cc1
  IC50: 11.9 µM

## N=C(N)NCCC[C@H](NC(=O)c1nccs1)C(=O)N[C@@H](CCCCN)C(=O)N[C@@H](C(N)=O)c1ccc(OCc2ccc(C(F)(F)F)cc2)cc1
  IC50: 2.22 µM (2×) and 2.34 µM and 1.63 µM and 2.19 µM and 2.45 µM and 1.49 µM

## O=C(Nc1ccc2c(c1)CNC2)c1cc(Br)cc2ccccc12
  IC50: > 99.5 µM

## O=C(Nc1ccc2c(c1)CNC2)c1cccc2[nH]c(=O)[nH]c12
  IC50: 40.8 µM

## O=C(Nc1ccc2c(c1)CNC2)c1cc(Cl)cc2[nH]ncc12
  IC50: 13.4 µM

## O=C(Nc1ccc2c(c1)CNC2)c1cccc2[nH]c(C(F)(F)F)cc12
  IC50: 31.8 µM

## O=C(NCC(F)F)[C@H](Nc1ccc2c(c1)CNC2)c1cc(Cl)cc(C2CC2)c1
  IC50: 28.5 µM and > 99.5 µM and 23.8 µM

## N#Cc1cc2c(cc1NC(=O)c1cc(F)cc3[nH]ncc13)CNC2
  IC50: 5.39 µM

## NCCc1csc2cc(C(=O)Nc3ccc4c(c3)CNC4)ccc12
  IC50: > 99.5 µM

## O=C(Nc1cc(Cl)cc(C(=O)Nc2cccc([C@H]3C[C@H]3C(=O)O)c2)c1)OCc1ccccc1
  IC50: 22.6 µM

## O=C(Nc1ccc2c(c1)CNC2)c1ccc2[nH]ccc2c1
  IC50: > 99.5 µM

## O=C(Nc1ccc2c(c1)CNC2)c1ccc2[nH]cc(C3CCNCC3)c2c1
  IC50: 29.2 µM

## C=CC[C@H]1NCc2cc(N[C@H](C(=O)NC(C)C)c3cc(Cl)cc4[nH]ncc34)ccc21
  IC50: 55.1 µM

## CC(C)(C)c1cc(Br)cc(C(=O)Nc2ccc3c(c2)CNC3)c1
  IC50: > 99.5 µM

## NCc1cccc(NC(=O)c2cc(Cl)cc(NC(=O)OCc3ccccc3)c2)c1
  IC50: 26.8 µM

## O=C(Nc1cc(Cl)cc([C@H]2CN(Cc3ccccc3)C[C@@H]2c2cccc(-c3nn[nH]n3)c2)c1)OCc1ccccc1
  IC50: 6.03 µM

## O=C1Cc2c(cc(F)cc2C(=O)Nc2ccc3c(c2)CNC3)N1
  IC50: 8.59 µM

## Clc1cc(CNc2ccc3c(c2)CNC3)c2cn[nH]c2c1
  IC50: 42.2 µM

## O=C(Nc1ccc2c(c1)CNC2)c1cc(F)cc2[nH]c(-c3ccccc3F)nc12
  IC50: 3.44 µM

## O=C(Nc1ccc2c(c1)CNC2)c1cc(Cl)cc2cc[nH]c12
  IC50: 87.9 µM

## CNC(=O)[C@H](Nc1cc(CN)cc(C(=O)O)c1)c1cc(Cl)cc(C2CC2)c1
  IC50: > 99.5 µM

## Clc1cc([C@@H]2C[C@H]2c2cccc(C3CCNCC3)c2)c2cn[nH]c2c1
  IC50: 6.45 µM

## Cc1cccc(-c2nc3c(C(=O)Nc4ccc5c(c4)CNC5)cc(Cl)cc3[nH]2)c1O
  IC50: 4.44 µM

## Cc1cccc(-c2nc3c(C(=O)Nc4ccc5c(c4)CNC5)cc(F)cc3[nH]2)c1
  IC50: 6.16 µM

## O=C(Nc1ccc2c(c1)CNC2)c1cc(Cl)cc2cn[nH]c12
  IC50: 41.9 µM

## NCc1ccc(-c2csc3cc(C(=O)Nc4ccc5c(c4)CNC5)ccc23)cc1
  IC50: 31.6 µM

## O=C(Nc1ccc2c(c1)CNC2)c1cccc2cn[nH]c12
  IC50: 37.3 µM

## O=C(Nc1ccc2c(c1)CNC2)c1cc(F)cc2[nH]c(-c3ccccc3)nc12
  IC50: 3.57 µM

## O=C(Nc1cc2c(cc1Br)CNC2)c1cc(F)cc2[nH]ncc12
  IC50: 21.8 µM

## O=C(Nc1ccc2c(c1)CNC2)c1cccc2nc(O)ccc12
  IC50: > 99.5 µM

## CNC(=O)[C@H](Nc1ccc2c(c1)CNC2)c1cc(Cl)cc(C2CC2)c1
  IC50: > 99.5 µM

## CNC(=O)[C@H](Nc1cccc(CN)c1)c1cc(Cl)cc(NC(=O)OCc2ccccc2)c1
  IC50: > 99.5 µM

## O=C(NC1CCOCC1)[C@H](Nc1ccc2c(c1)CNC2)c1cc(Cl)cc(C2CC2)c1
  IC50: 53.4 µM

## CNC(=O)[C@H](Nc1cc(CN)cc(-c2nn[nH]n2)c1)c1cc(Cl)cc(C2CC2)c1
  IC50: > 99.5 µM

## Cc1c(C(=O)Nc2cc(CCCN)ccn2)cc(C2CC2)n1C
  IC50: 34.5 µM

## CC(C)NC(=O)[C@H](Nc1ccc2c(c1)CNC2)c1cc(Cl)cc2[nH]ncc12
  IC50: 26.2 µM

## NCc1csc2cc(C(=O)Nc3ccc4c(c3)CNC4)ccc12
  IC50: 9.07 µM

## O=C(Nc1ccc2c(c1)CNC2)c1cccc2c(C3CNC3)n[nH]c12
  IC50: 9.27 µM

## O=C(Nc1cc(Cl)cc(-c2ccc3[nH]c(C(=O)O)cc3c2)c1)OCc1ccccc1
  IC50: 5 µM

## N#C[C@H](Nc1ccc2c(c1)CNC2)c1cc(Cl)cc2[nH]ncc12
  IC50: > 99.5 µM

## CCOCCNC(=O)[C@H](Nc1ccc2c(c1)CNC2)c1cc(Cl)cc2[nH]ncc12
  IC50: > 99.5 µM

## O=C1Cc2cc(C(=O)Nc3ccc4c(c3)CNC4)ccc2N1
  IC50: 7.13 µM and 5.44 µM

## COc1cccc(-c2nc3c(C(=O)Nc4ccc5c(c4)CNC5)cc(F)cc3[nH]2)c1
  IC50: 3.72 µM

## O=C(Nc1ccc2c(c1)CNC2)c1cc(F)cc2[nH]ncc12
  IC50: 23.4 µM

## O=C(Nc1ccc2c(c1)CNC2)c1cc(Br)cc2[nH]c(=O)[nH]c12
  IC50: 21.5 µM

## CC(C)c1cc(Br)cc(C(=O)Nc2ccc3c(c2)CNC3)c1
  IC50: > 99.5 µM

## O=C(Nc1ccc2c(c1)CNCC2)c1cc(Cl)cc2[nH]ncc12
  IC50: 93.9 µM

## Cn1cc(CNC(=O)[C@H](Nc2ccc3c(c2)CNC3)c2cc(Cl)cc(C3CC3)c2)cn1
  IC50: 81.8 µM

## Cc1c(C(=O)Nc2cc([C@H]3CCOC3)ccn2)cc(C2CC2)n1C
  IC50: > 99.5 µM

## Cc1c(C(=O)Nc2cc(-c3cccnc3)ccn2)cc(C2CC2)n1C
  IC50: 6.22 µM

## CC(C)(c1nc2c(C(=O)Nc3ccc4c(c3)CNC4)cc(F)cc2[nH]1)S(C)(=O)=O
  IC50: 13.6 µM

## O=C(NCCC1CC1)[C@H](Nc1ccc2c(c1)CNC2)c1cc(Cl)cc(C2CC2)c1
  IC50: > 99.5 µM

## C=CC[C@H]1NCc2cc(NC(=O)c3cc(Cl)cc4[nH]ncc34)ccc21
  IC50: 68.2 µM

## NCc1cccc([C@H]2C[C@@H]2c2cc(Cl)cc(NC(=O)OCc3ccccc3)c2)c1
  IC50: 7.85 µM

## O=C(Nc1cc(Br)c2c(c1)CNC2)c1cc(F)cc2[nH]ncc12
  IC50: 15 µM

## O=C(Nc1ccc2c(c1)CNC2)c1cc(F)cc2[nH]c(-c3ccc(F)cc3)nc12
  IC50: 2.96 µM

## O=C(Nc1ccc2c(c1)CNC2)c1cc(Cl)cc2nn(-c3ccccc3)nc12
  IC50: 4.73 µM

## Cc1ccccc1-c1nc2c(C(=O)Nc3ccc4c(c3)CNC4)cc(F)cc2[nH]1
  IC50: 2.2 µM

## C=CC[C@H]1NCc2cc(NC(=O)c3cccc4c3CC(=O)N4)ccc21
  IC50: > 99.5 µM

## O=C(Nc1ccc2c(c1)CNC2)c1ccc2c(C3=CCNCC3)csc2c1
  IC50: 54.4 µM

## N#Cc1cccc(-c2nc3c(C(=O)Nc4ccc5c(c4)CNC5)cc(F)cc3[nH]2)c1
  IC50: 2.31 µM

## Clc1ccc2[nH]cc(Cc3ccc(-c4nn[nH]n4)cc3)c2c1
  IC50: 44.1 µM

## Cc1ccc(NC(=O)c2cc(Cl)cc(NC(=O)OCc3ccccc3)c2)cc1CN
  IC50: 57.7 µM

## CN1Cc2ccc(NC(=O)c3cc(Cl)cc4[nH]ncc34)cc2C1
  IC50: 92.8 µM

## O=C(Nc1ccc2c(c1)CNC2)c1cc(Cl)cc2c1CCC2
  IC50: > 99.5 µM

## N[C@H]1CC[C@H](c2ccc(NC(=O)c3cc(Cl)cc(NC(=O)OCc4ccccc4)c3)cc2)C1
  IC50: 5.84 µM

## O=C(NC1CCOCC1)[C@H](Nc1ccc2c(c1)CNC2)c1cc(Cl)cc2[nH]ncc12
  IC50: 39.5 µM

## Cc1[nH]c2ccccc2c1CN1CCC(c2c[nH]c3ncccc23)CC1
  IC50: > 99.5 µM

## Cc1nc2c(C(=O)Nc3ccc4c(c3)CNC4)cc(Cl)cc2[nH]1
  IC50: > 99.5 µM

## O=C(Nc1ccc2c(c1)CNC2)c1cc(F)cc2c1CCC2
  IC50: > 99.5 µM

## CC(C)CNC(=O)c1cc(Cl)ccc1NS(=O)(=O)c1ccc(Oc2ccccc2Cl)cc1
  IC50: 12.1 µM

## O=C(NCC(F)F)[C@H](Nc1ccc2c(c1)CNC2)c1cc(F)cc2[nH]ncc12
  IC50: 93.7 µM

## O=C(Nc1cc(Cl)cc(C(=O)Nc2ccc3c(c2)CCNC3)c1)OCc1ccccc1
  IC50: 24.4 µM

## O=C(Nc1cc2c(c(C3=CCS(=O)(=O)CC3)c1)CNC2)c1cc(F)cc2[nH]ncc12
  IC50: 12.8 µM

## O=C1Cc2c(cc(Br)cc2C(=O)Nc2ccc3c(c2)CNC3)N1
  IC50: 17.8 µM

## C=CC[C@H]1NCc2cc(NC(=O)c3cc(F)cc4[nH]ncc34)ccc21
  IC50: 32.3 µM

## N=C(N)NCCC[C@H](NC(=O)[C@H](Cc1ccc(CN)cc1)NC(=O)c1ccccc1)B(O)O
  IC50: 0.819 µM and 0.784 µM and 0.98 µM

## O=C(Nc1cc(Cl)cc(C(=O)Nc2ccc3c(c2)CNC3)c1)OCc1ccccc1
  IC50: 72.5 µM

## NCc1ccc([C@H]2C[C@@H]2c2cc(Cl)cc(NC(=O)OCc3ccccc3)c2)cc1
  IC50: 6.85 µM

## O=C(Nc1ccc2c(c1)CNC2)c1cc(F)cc2[nH]c(-c3cccc(F)c3)nc12
  IC50: 2.73 µM

## NCc1cccc(-c2csc3cc(C(=O)Nc4ccc5c(c4)CNC5)ccc23)c1
  IC50: 29.8 µM

## OCC#C[C@H](Nc1ccc2c(c1)CNC2)c1cc(Cl)cc2[nH]ncc12
  IC50: 26.2 µM

## O=C(Nc1cc(Cl)cc(C(=O)Nc2cccc(-n3nn[nH]c3=O)c2)c1)OCc1ccccc1
  IC50: 10.5 µM

## c1cc(C2CCN(Cc3c[nH]c4ccccc34)CC2)c2ccncc2c1
  IC50: > 99.5 µM

## Cn1c(=O)[nH]c2c(C(=O)Nc3ccc4c(c3)CNC4)cc(Br)cc21
  IC50: > 99.5 µM

## CC(C)c1nnc(-c2nc3c(C(=O)Nc4ccc5c(c4)CNC5)cc(F)cc3[nH]2)s1
  IC50: 10.8 µM
